SMILES: O=C(O)c1cc2c(-c3ccccc3)n[nH]c2s1 [Example 1, 3-phenyl-1H-thieno[2,3-c]pyrazole-5-carboxylic acid]
- melting point: 142 °C

— patent US20050026984A1, “Substituted thieno [2,3-c] pyrazoles and their use as medicinal products” (Aventis Pharma S.A., priority 2003, published 2005)
